In ChEMBL document CHEMBL5543068, “Mitochondrial targeting derivatives of honokiol enhanced selective antitumor activity in NCI-H446 cells and decreased in vivo toxicity in Caenorhabditis elegans” (Eur J Med Chem, 2024):
The source made the active and inactive calls. The calls are words filed in the database; no cut-off is given here.

Key:
NCI-H446 [1] = experiment: Induction of apoptosis in human NCI-H446 cells assessed as crumpled nuclei at 2 uM incubated for 24 hrs by DAPI staining based fluorescence inverted microscopic analysis; type: functional, cell-based
A549 = experiment: Antiproliferative activity against human A549 cells assessed as reduction in cell viability incubated for 48 hrs by MTT assay; type: functional, cell-based; conditions: A549, 48 h
[2] = Cytotoxicity against HBE (human bronchial epithelial) cells assessed as reduction in cell viability incubated for 48 hrs by MTT assay; type: toxicity, cell-based
[3] = Cytotoxicity against human HL7702 cells assessed as reduction in cell viability incubated for 48 hrs by MTT assay; type: toxicity, cell-based; conditions: HL7702 (L02) cells
HepG2 = experiment: Antiproliferative activity against human HepG2 cells assessed as reduction in cell viability incubated for 48 hrs by MTT assay; type: functional, cell-based; conditions: HepG2, 48 h
NCI-H446 [4] = experiment: Antiproliferative activity against human NCI-H446 cells assessed as reduction in cell viability incubated for 48 hrs by MTT assay; type: functional, cell-based; conditions: NCI-H446, 48 h
[5] = Selectivity index, ratio of IC50 for cytotoxicity against HBE (human bronchial epithelial) cells to IC50 for antiproliferative activity against human NCI-H446 cells; type: toxicity, cell-based; conditions: HBE (human bronchial epithelial) cells versus NCI-H446 cells, read-out: Ratio IC50

C=CCc1ccc(OCCC)c(-c2ccc(OCCCCCC[n+]3ccc(/C=C/c4c[nH]c5ccccc45)cc3)c(CC=C)c2)c1
Activity (NCI-H446 [1]): Active | IC50 (A549): 2.04 µM | IC50 at 48 h [2]: 7.78 µM | IC50 at 48 h [3]: 1.85 µM | IC50 (HepG2): 2.03 µM | IC50 (NCI-H446 [4]): 2.88 µM

C=CCc1ccc(OC)c(-c2ccc(OCCCOC(=O)Cc3c4[n+](cc5c(OC)c(OC)ccc35)CCc3cc5c(cc3-4)OCO5)c(CC=C)c2)c1
IC50 (A549): 7.74 µM | IC50 at 48 h [2]: 21.6 µM | IC50 at 48 h [3]: 4.76 µM | selectivity ratio [5]: 3.53 | IC50 (HepG2): 3.14 µM | IC50 (NCI-H446 [4]): 3.53 µM

C=CCc1ccc(OCCC[n+]2ccc(/C=C/c3c[nH]c4ccccc34)cc2)c(-c2ccc(OC)c(CC=C)c2)c1
IC50 (A549): 3.27 µM | IC50 at 48 h [2]: 9.84 µM | IC50 at 48 h [3]: 4.62 µM | IC50 (HepG2): 1.75 µM | IC50 (NCI-H446 [4]): 3.29 µM

C=CCc1ccc(OCCC)c(-c2ccc(OCCCCCCOC(=O)Cc3c4[n+](cc5c(OC)c(OC)ccc35)CCc3cc5c(cc3-4)OCO5)c(CC=C)c2)c1
IC50 (A549): 1.59 µM | IC50 at 48 h [2]: 3.59 µM | IC50 at 48 h [3]: 4.28 µM | IC50 (HepG2): 1.38 µM | IC50 (NCI-H446 [4]): 1.56 µM

CCCCCCOC(=O)Cc1c2[n+](cc3c(OC)c(OC)ccc13)CCc1cc3c(cc1-2)OCO3
IC50 (A549): 6.11 µM | IC50 at 48 h [2]: 10.6 µM | IC50 at 48 h [3]: 19 µM | IC50 (HepG2): > 10 µM | IC50 (NCI-H446 [4]): 13 µM

CCCCCCCCc1c2[n+](cc3c(OC)c(OC)ccc13)CCc1cc3c(cc1-2)OCO3
IC50 (A549): 1.72 µM | IC50 at 48 h [2]: 0.79 µM | IC50 at 48 h [3]: 14.7 µM | IC50 (HepG2): 18.7 µM | IC50 (NCI-H446 [4]): 2.65 µM
